Measurements reported in US10506810B2, “Synergistic herbicidal composition” (QINGDAO KINGAGROOT RESISTANT WEED MANAGEMENT CO., LTD., priority 2015, dated 2019).

How the values were obtained:
Myosoton aquaticum = assay: pot-culture method, stem and leaf treatment in greenhouse, fresh weight inhibition rate 20 days after treatment (Gowing method); format: in vivo
Description: (§1) Capsella bursa-pastoris, Myosoton aquaticum, Alopecurus japonicus were collected from corn fields in Huangdao Experimental Base of Shandong Province.
(§2) The above weeds were cultivated by a pot culture method. […] Full and uniform weed seeds were selected, soaked in warm water at 25° C. for 6 hours, and germinated in a 28° C. biochemical incubator (darkness). […] A certain amount of water was added to the enamel pan regularly to keep the soil moist.
(§3) The technical materials were all dissolved in acetone, and diluted with an aqueous solution containing 0.1% emulsifier T-80. The dilution is performed as required.
(§4) A ratio of the active ingredient A to the active ingredient B and amounts thereof in each group depends on the characteristics and toxicity of the two agents, as well as the main application purpose of a corresponding formulation. Based on the pre-tests in this study, the dosage of the active ingredient A and the active ingredient B applied alone and in combination were shown in the tables, and a total 15 groups were designed. Water containing the solvent and emulsifier same with the above groups but free of the agents was used as a blank control.
(§5) 3 pots with 20 weed seeds per pot were treated in one treatment with […] per treatment, that is, a total of 60 weeds were treated in one treatment.
(§6) The agents were used for only once in the experiment. In the stage of weeds with 2 leaves and 1 core, the weeds were thinned out to maintain 15 weeds per pot and 45 weeds for each treatment, then continued to be cultured to 3-5-leaves stage of Capsella bursa-pastoris and Myosoton aquaticum, and 3-leaves and 1-core stage of Alopecurus japonicus, and treated.
(§7) The well-cultured weeds were evenly placed on a platform with an area of 0.5 m^2, and a solution of agents was sprayed on the stems and leaves thereof by the 3WP-2000-type walking spray tower at a dosage of 30 kg/ha and at a spray pressure of 0.3 MPa. After all the solution was sprayed, the valve was closed. After 30 seconds, the door of the spray tower was opened, and the nutritional bowl was taken out. Then the valve was opened, and the spray tube was cleaned by spraying 50 ml of water.
(§8) A pot-culture method was employed. For the cultivation of weeds, please refer to the Section 1.2, and “Pesticide guidelines for laboratory bioactivity tests—herbicides”. As to a method for applying agents, please refer to the section 2.3.2, that is, a method for treating stems and leaves was employed.
(§9) A method for investigating absolute number was employed, wherein whole seedlings of survival weeds were cut off with a blade along the soil surface, and the fresh weight of the weeds was weighed with an analytical balance. For dead weeds, the fresh weight thereof was zero.
(§10) The investigation was performed after 20 days of the treatment for only once.
(§11) Wherein, in the formula, X represented the fresh weight inhibition rate of the active ingredient A in a dosage of P, and Y represented the fresh weight inhibition rate of the active ingredient B in a dosage of Q.

Capsella bursa-pastoris = assay: as above; format: in vivo
Description: as §1, §2, §3, §4, §5, §6, §7, §8, §9, §10, §11

[1] = Myosoton aquaticum, 480 h, read-out: actual fresh weight inhibition rate
[2] = Capsella bursa-pastoris, 480 h, read-out: actual fresh weight inhibition rate

CCNc1nc(NC(C)(C)C)nc(SC)n1 [terbutryn]
pest or weed control at 125 g/ha (Myosoton aquaticum; Myosoton aquaticum, 480 h, Myosoton aquaticum, 125 g/hm^2, read-out: actual fresh weight inhibition rate): 13.4% | pest or weed control at 275 g/ha (Myosoton aquaticum; Myosoton aquaticum, 480 h, Myosoton aquaticum, 275 g/hm^2, read-out: actual fresh weight inhibition rate): 29.3% | pest or weed control at 425 g/ha (Myosoton aquaticum; Myosoton aquaticum, 480 h, Myosoton aquaticum, 425 g/hm^2, read-out: actual fresh weight inhibition rate): 33.9% | pest or weed control at 125 g/ha (Capsella bursa-pastoris; 480 h, Capsella bursa-pastoris, 125 g/hm^2, read-out: actual fresh weight inhibition rate): 15.4% | pest or weed control at 275 g/ha (Capsella bursa-pastoris; 480 h, Capsella bursa-pastoris, 275 g/hm^2, read-out: actual fresh weight inhibition rate): 25.3% | pest or weed control at 425 g/ha (Capsella bursa-pastoris; 480 h, Capsella bursa-pastoris, 425 g/hm^2, read-out: actual fresh weight inhibition rate): 40.9%

COC(=O)c1nc(-c2ccc(Cl)c(OC)c2F)cc(N)c1Cl [halauxifen-methyl, reference compound]
actual fresh weight inhibition rate (%) (Myosoton aquaticum; dosage 5 g/hm^2): 17.5% | actual fresh weight inhibition rate (%) (Myosoton aquaticum; dosage 10 g/hm^2): 35.6% | actual fresh weight inhibition rate (%) (Capsella bursa-pastoris; dosage 5 g/hm^2): 59.7% | actual fresh weight inhibition rate (%) (Capsella bursa-pastoris; dosage 10 g/hm^2): 71.4%

CN(C)C(=O)SCCCCOc1ccccc1 [fenothiocarb]
pest or weed control at 40 g/ha (Myosoton aquaticum; [1]): 70.3% | pest or weed control at 65 g/ha (Myosoton aquaticum; [1]): 84.5% | pest or weed control at 90 g/ha (Myosoton aquaticum; [1]): 97.3% | pest or weed control at 40 g/ha (Capsella bursa-pastoris; [2]): 0% | pest or weed control at 65 g/ha (Capsella bursa-pastoris; [2]): 0% | pest or weed control at 90 g/ha (Capsella bursa-pastoris; [2]): 0%

O=C(O)COC(=O)c1cc(Oc2ccc(C(F)(F)F)cc2Cl)ccc1[N+](=O)[O-] [fluoroglycofen, reference compound]
actual fresh weight inhibition rate (%) (Myosoton aquaticum; dosage 5 g/hm^2): 37.9% | actual fresh weight inhibition rate (%) (Myosoton aquaticum; dosage 10 g/hm^2): 41.8% | actual fresh weight inhibition rate (%) (Myosoton aquaticum; dosage 15 g/hm^2): 55.4% | actual fresh weight inhibition rate (%) (Capsella bursa-pastoris; dosage 5 g/hm^2): 47.4% | actual fresh weight inhibition rate (%) (Capsella bursa-pastoris; dosage 10 g/hm^2): 61.6% | actual fresh weight inhibition rate (%) (Capsella bursa-pastoris; dosage 15 g/hm^2): 70.5%

O=C(Nc1ccc(F)cc1)c1cccc(Oc2cccc(C(F)(F)F)c2)n1 [picolinafen]
actual fresh weight inhibition rate (Myosoton aquaticum; Myosoton aquaticum, 40 g/hm^2): 14.5% | actual fresh weight inhibition rate (Myosoton aquaticum; Myosoton aquaticum, 80 g/hm^2): 34.9% | actual fresh weight inhibition rate (Myosoton aquaticum; Myosoton aquaticum, 120 g/hm^2): 50.5% | actual fresh weight inhibition rate (Capsella bursa-pastoris; Capsella bursa-pastoris, 40 g/hm^2): 16.4% | actual fresh weight inhibition rate (Capsella bursa-pastoris; Capsella bursa-pastoris, 80 g/hm^2): 33.2% | actual fresh weight inhibition rate (Capsella bursa-pastoris; Capsella bursa-pastoris, 120 g/hm^2): 55.6%

CSc1nc(NC(C)C)nc(NC(C)C)n1 [prometryn]
pest or weed control at 150 g/ha (Myosoton aquaticum; Myosoton aquaticum, 480 h, Myosoton aquaticum, 150 g/hm^2, read-out: actual fresh weight inhibition rate): 22.6% | pest or weed control at 450 g/ha (Myosoton aquaticum; Myosoton aquaticum, 480 h, Myosoton aquaticum, 450 g/hm^2, read-out: actual fresh weight inhibition rate): 33.7% | pest or weed control at 750 g/ha (Myosoton aquaticum; Myosoton aquaticum, 480 h, Myosoton aquaticum, 750 g/hm^2, read-out: actual fresh weight inhibition rate): 45.2% | pest or weed control at 150 g/ha (Capsella bursa-pastoris; 480 h, Capsella bursa-pastoris, 150 g/hm^2, read-out: actual fresh weight inhibition rate): 20.4% | pest or weed control at 450 g/ha (Capsella bursa-pastoris; 480 h, Capsella bursa-pastoris, 450 g/hm^2, read-out: actual fresh weight inhibition rate): 29.6% | pest or weed control at 750 g/ha (Capsella bursa-pastoris; 480 h, Capsella bursa-pastoris, 750 g/hm^2, read-out: actual fresh weight inhibition rate): 45.7%

COc1ncc(F)c2nc(S(=O)(=O)Nc3c(F)cccc3F)nn12 [florasulam]
actual fresh weight inhibition rate (Myosoton aquaticum; Myosoton aquaticum, 2.5 g/hm^2): 28.3% | actual fresh weight inhibition rate (Myosoton aquaticum; Myosoton aquaticum, 5 g/hm^2): 41.9% | actual fresh weight inhibition rate (Capsella bursa-pastoris; Capsella bursa-pastoris, 2.5 g/hm^2): 45.8% | actual fresh weight inhibition rate (Capsella bursa-pastoris; Capsella bursa-pastoris, 5 g/hm^2): 60.4%

COC(=O)c1c(Cl)nn(C)c1S(=O)(=O)NC(=O)Nc1nc(OC)cc(OC)n1 [halosulfuron-methyl]
pest or weed control at 30 g/ha (Myosoton aquaticum; [1]): 14.5% | pest or weed control at 50 g/ha (Myosoton aquaticum; [1]): 34.9% | pest or weed control at 70 g/ha (Myosoton aquaticum; [1]): 50.5% | pest or weed control at 30 g/ha (Capsella bursa-pastoris; [2]): 17.9% | pest or weed control at 50 g/ha (Capsella bursa-pastoris; [2]): 27.8% | pest or weed control at 70 g/ha (Capsella bursa-pastoris; [2]): 44.1%

Cc1ccc(NC(=O)N(C)C)cc1Cl [chlorotoluron]
pest or weed control at 1500 g/ha (Myosoton aquaticum; Myosoton aquaticum, 480 h, dosage 1500 g/hm^2, read-out: actual fresh weight inhibition rate): 34.7% | pest or weed control at 2250 g/ha (Myosoton aquaticum; Myosoton aquaticum, 480 h, dosage 2250 g/hm^2, read-out: actual fresh weight inhibition rate): 43.8% | pest or weed control at 3000 g/ha (Myosoton aquaticum; Myosoton aquaticum, 480 h, dosage 3000 g/hm^2, read-out: actual fresh weight inhibition rate): 60.1% | pest or weed control at 1500 g/ha (Capsella bursa-pastoris; Capsella bursa-pastoris, 480 h, dosage 1500 g/hm^2, read-out: actual fresh weight inhibition rate): 33.5% | pest or weed control at 2250 g/ha (Capsella bursa-pastoris; Capsella bursa-pastoris, 480 h, dosage 2250 g/hm^2, read-out: actual fresh weight inhibition rate): 43.7% | pest or weed control at 3000 g/ha (Capsella bursa-pastoris; Capsella bursa-pastoris, 480 h, dosage 3000 g/hm^2, read-out: actual fresh weight inhibition rate): 57.3%
